From paper PMC10821025, “Bioprospection of Tenellins Produced by the Entomopathogenic Fungus Beauveria neobassiana” (Journal of Fungi, 2024)
≈ marks a conversion by molar mass, not a printed value. Where two headings read alike, the source gives them in different places. One block for each compound: values may come before it.

Assays:
[1] = tested on: Acinetobacter baumanii [DSM 30008]; test: Serial dilution assay (MIC); type: cell-based; conditions: Acinetobacter baumannii, DSM30008
Method: (§1) All isolated compounds were assessed for their antimicrobial activity using a serial dilution assay over a concentration range from 67 to 0.5 µg/mL following the previously described protocols. In brief, the antimicrobial activity of all isolated metabolites was assessed by determining their minimum inhibitory concentration (MIC) against a range of different pathogens, including five fungal species: Candida albicans [DSM 1665], Mucor hiemalis [DSM 2656], Schizosaccharomyces pombe [DSM 70572], Rhodotorula glutinis [DSM 10134], and Wickerhamomyces anomalus [DSM 6766], as well as various Gram-positive: Staphylococcus aureus [DSM 346], Bacillus subtilis [DSM 10], Mycolicibacterium smegmatis [ATCC 700084], and Gram-negative bacteria: Acinetobacter baumanii [DSM 30008], Escherichia coli [DSM 1116], Chromobacterium violaceum [DSM 30191], and Pseudomonas aeruginosa [PA14]. In our experiments, gentamicin served as the positive control against most bacteria, while nystatin acted as the positive control against all fungi. For specific microorganisms, namely A. baumannii, B. subtilis, and M. smegmatis, ciprofloxacin, oxytetracycline, and kanamycin were used as positive controls, respectively.

[2] = tested on: mouse fibroblasts (L-929); test: Cytotoxicity assay, L929; type: cell-based; conditions: L929 (fibroblast), 5 days of incubation
Method: (§2) The cytotoxicity of isolated compounds was determined as previously described over a concentration range between […] against two mammalian cell lines: mouse fibroblasts (L-929) and human endocervical adenocarcinoma (KB-3.1). […] Following 5 days of incubation, we determined the minimum concentration of the tested compounds required to achieve 50% growth inhibition, expressed as IC50 values.

[3] = tested on: human endocervical adenocarcinoma (KB-3.1); test: Cytotoxicity assay, KB3.1; type: cell-based; conditions: 5 days of incubation
Method: as §2

[4] = tested on: Bacillus subtilis [DSM 10]; test: Serial dilution assay (MIC); type: cell-based
Method: as §1

[5] = tested on: Candida albicans [DSM 1665]; test: Serial dilution assay (MIC); type: cell-based
Method: as §1

[6] = tested on: Escherichia coli [DSM 1116]; test: Serial dilution assay (MIC); type: cell-based
Method: as §1

[7] = tested on: Mucor hiemalis [DSM 2656]; test: Serial dilution assay (MIC); type: cell-based
Method: as §1

[8] = tested on: Mycolicibacterium smegmatis [ATCC 700084]; test: Serial dilution assay (MIC); type: cell-based; conditions: for MIC: Mycolicibacterium smegmatis, ATCC700084
Method: as §1

[9] = tested on: Pseudomonas aeruginosa [PA14]; test: Serial dilution assay (MIC); type: cell-based
Method: as §1

[10] = tested on: Staphylococcus aureus [DSM 346]; test: Serial dilution assay (MIC); type: cell-based
Method: as §1

[11] = tested on: S. aureus (DSM 1104) biofilm formation; test: Biofilm inhibition assay (Crystal Violet staining); type: cell-based, Staphylococcus aureus; conditions: for concentration below which biofilm inhibitory activity is lost: S. aureus biofilm, tested 125–7.8 µg/mL; for Biofilm inhibition (% ± SD): S. aureus (DSM 1104)
Method: The compounds were evaluated for their ability to inhibit S. aureus (DSM 1104) biofilm formation, following the established procedure. Briefly, serially diluted compounds (125–7.8 µg/mL) were co-incubated with S. aureus in 96-well plates in CASO medium supplemented with 4% of glucose (see Supplementary Materials). Biofilm inhibition was assessed by using Crystal Violet staining after […], with microporenic acid A serving as a positive control and methanol as solvent control.
Biofilm inhibition assays were condu cted acco rding to th e methodolo g y previousl y described (Soliga et al., 2021), targeting the inhibition of biofilm formation in Staphylococcus aureus […]
S. aureus were cultured i n LB and CASO medium at 37 °C for 18 h, respect ivel y, in a shaker at 120 rpm after being thawed from a -20 °C stock solution. The culture's optical densit y at 600 nm (OD600) was measured and adjusted to a 0.1 McFarland standard in M63 minimal medium supplemented with necessar y nutrients and CASO medi um with 4% glucose for S. aureus, respectively. Microtiter plates were loaded with 150 µL of the bacterial suspension containing s eriall y diluted test compounds (7.8 -125 µg/m L) and incubated for 24 h at 37 °C. The evaluation of biofilm inhibition was performed by staining the biofilm with 0.1% cr ystal violet (CV). After staining, the plates were washed, and the biofilm dissolved in 95% ethanol. The absorbance of the dissolved biofilm was measured at 530 nm using a plat e reader. Negative control involved methanol (2.5%) while microporenic acid A at a concentration range of 7.8 to 125 µg/mL were used as the positive control for S. aureus (Chepkirui et al., 2018). All experiments were performed three times, and the standard deviation (SD) was maintained at or below 15% for S. aureus .
Differences between sam ples and the control grou p were determined b y a t wo-tailed Student’s t-test. Statistical significan ce was defined as p < 0.01. Anal ysis was carri ed out using GraphPad Prism 9® (GraphPad Software, San Diego, CA, USA). […]

[12] = tested on: Chromobacterium violaceum [DSM 30191]; test: Serial dilution assay (MIC); type: cell-based
Method: as §1

[13] = tested on: lung cancer (A-549) cell line; test: Cytotoxicity assay, A549; type: cell-based; conditions: Homo sapiens
[14] = tested on: breast cancer (MCF-7) cell line; test: Cytotoxicity assay, MCF-7; type: cell-based; conditions: Homo sapiens, MCF7, 120 h
[15] = tested on: Rhodotorula glutinis [DSM 10134]; test: Serial dilution assay (MIC); type: cell-based
Method: as §1

[16] = tested on: Schizosaccharomyces pombe [DSM 70572]; test: Serial dilution assay (MIC); type: cell-based
Method: as §1

[17] = tested on: Wickerhamomyces anomalus [DSM 6766]; test: Serial dilution assay (MIC); type: cell-based
Method: as §1

[18] = Homo sapiens, KB 3-1, 120 h, KB3.1 (endocervical adenocarcinoma)
[19] = KB3.1 (endocervical adenocarcinoma)
[20] = Staphylococcus aureus, DSM1104, read-out: Biofilm inhibition (% ± SD), S. aureus (DSM 1104), 62.5 µg/ml
[21] = Staphylococcus aureus, DSM1104, read-out: Biofilm inhibition (% ± SD), S. aureus (DSM 1104), 125 µg/ml

SMILES: CCC(C)/C=C(C)/C=C/C(=O)c1c(O)c(-c2ccc(O)cc2)c[nH]c1=O (stereo not drawn) [Compound 3, Pretenellin B]
IC50 (µM) [2]: weak or no activity
IC50 ([2]; Mus musculus, L929, 120 h): 48.2 µM
IC50 [3, 18]: 20.2 µM
IC50 (µM) [3, 19]: weak or no activity
MIC ([4]; DSM10): 66.6 µg/mL (≈ 188 µM)
MIC ([5]; DSM1665): > 67 µg/mL
MIC ([12]; DSM30191): > 67 µg/mL
MIC ([6]; DSM1116): > 67 µg/mL
MIC ([7]; DSM2656): > 67 µg/mL
MIC [8]: > 67 µg/mL
MIC [9]: > 67 µg/mL
MIC ([10]; DSM346): 66.6 µg/mL (≈ 188 µM)
inhibitory activity on S. aureus biofilm formation (in words) ([11]; 125–7.8 µg/mL): promising activities in a dose-dependent manner
Biofilm inhibition (% ± SD) ([11]; 7.8 µg/ml, listed as pretenellin B (3)): ca. 30%
inhibition at 7.8 µg/mL ([11]; Staphylococcus aureus, DSM1104, read-out: Biofilm inhibition (% ± SD), S. aureus (DSM 1104), 7.8 µg/ml): 37 ± 7%
inhibition at 15.62 µg/mL ([11]; Staphylococcus aureus, DSM1104, read-out: Biofilm inhibition (% ± SD), S. aureus (DSM 1104), 15.62 µg/ml): 52 ± 6%
inhibition at 31.25 µg/mL ([11]; Staphylococcus aureus, DSM1104, read-out: Biofilm inhibition (% ± SD), S. aureus (DSM 1104), 31.25 µg/ml): 79 ± 8%
inhibition at 62.5 µg/mL [11, 20]: 83 ± 6%
inhibition at 125 µg/mL [11, 21]: 83 ± 6%

SMILES: CCC(/C=C(C)/C=C/C(=O)c1c(O)c(-c2ccc(O)cc2)c[nH]c1=O)CO (stereo not drawn) [Compound 6, Pyridovericin]
IC50 [2]: 5.7 µM
IC50 ([2]; Mus musculus, L929, 120 h): 4.9 to 6.8 µM
IC50 [3, 18]: 4.9 to 6.8 µM
IC50 [3, 19]: 4.9 µM
IC50 ([13]; 120 h, A549 (lung), 5 days of incubation, read-out: IC50): 24100 nM
IC50 ([14]; MCF-7 (breast), 5 days of incubation, read-out: IC50): 7300 nM
MIC ([4]; DSM10): 66.6 µg/mL (≈ 180 µM)
MIC ([5]; DSM1665): > 67 µg/mL
MIC ([6]; DSM1116): > 67 µg/mL
MIC ([7]; DSM2656): > 67 µg/mL
MIC [8]: > 67 µg/mL
MIC [9]: > 67 µg/mL
MIC ([10]; DSM346): 66.6 µg/mL (≈ 180 µM)
concentration below which biofilm inhibitory activity is lost [11]: 62.5 µg/mL
inhibition at 62.5 µg/mL [11, 20]: 48 ± 5%
inhibition at 125 µg/mL [11, 21]: 64 ± 14%

SMILES: C/C(=C\c1csc(C)n1)[C@@H]1C[C@@H]2O[C@]2(C)CCC[C@H](C)[C@H](O)[C@@H](C)C(=O)C(C)(C)[C@@H](O)CC(=O)O1 [Epothilone B, reference compound]
IC50 ([13]; A549, 120 h, read-out: IC50, Positive Control Epothilone B (nM)): 0.05 nM
IC50 ([14]; read-out: IC50, Positive Control Epothilone B (nM)): 0.07 nM

SMILES: CC(C)=CCC/C(C)=C/CC/C(C)=C/CC/C(C)=C/CO[C@@H](C(=O)O)[C@H](CC(=O)O)C(=O)O [Microporenic acid A, reference compound]
Biofilm inhibition (% ± SD) ([11]; 7.8 µg/ml): 41 ± 9%
Biofilm inhibition (% ± SD) ([11]; 15.62 µg/ml): 70 ± 13%
Biofilm inhibition (% ± SD) ([11]; 31.25 µg/ml): 85 ± 1%
Biofilm inhibition (% ± SD) ([11]; 62.5 µg/ml): 84 ± 1%
Biofilm inhibition (% ± SD) ([11]; 125 µg/ml): 86 ± 0%

SMILES: C[C@@H]1[C@H](O)[C@@H](C)/C=C/C=C/CC/C=C/C=C/C=C/C=C/C(O[C@H]2O[C@H](C)[C@@H](O)[C@H](N)[C@@H]2O)CC2O[C@](O)(CC(O)C(O)CCC(O)CC(O)CC(O)CC(=O)O[C@H]1C)CC(O)C2C(=O)O (stereo partly drawn) [Nystatin, reference compound]
MIC (µg/mL) [5]: 8.3 ^N µg/mL
MIC (µg/mL) [7]: 8.30 ^N µg/mL
MIC (µg/mL) [15]: 4.20 ^N µg/mL
MIC (µg/mL) [16]: 4.20 ^N µg/mL
MIC (µg/mL) [17]: 16.6 ^N µg/mL

Now from value to compound, other results behind:

MIC [1]: 0.52 µg/mL (≈ 1.57 µM)
SMILES: O=C(O)c1cn(C2CC2)c2cc(N3CCNCC3)c(F)cc2c1=O [Ciprofloxacin, reference compound]

MIC ([4]; DSM10, read-out: MIC): > 67 µg/mL
MIC ([5]; DSM1665, read-out: MIC): > 67 µg/mL
MIC ([6]; DSM1116, read-out: MIC): > 67 µg/mL
MIC ([7]; DSM2656, read-out: MIC): > 67 µg/mL
MIC ([8]; Mycobacterium smegmatis, read-out: MIC): > 67 µg/mL
MIC ([9]; read-out: MIC): > 67 µg/mL
MIC ([10]; DSM346, read-out: MIC): > 67 µg/mL
SMILES: O=C(O)c1c(O)c(-c2ccc(O)cc2)cn(O)c1=O [Compound 1, Pretenellin C]
IC50 (µM) ([2]; listed as pretenellin C (1)): weak or no activity
IC50 ([2]; Mus musculus, L929, 120 h): > 37 µg/mL
IC50 ([3]; Homo sapiens, KB 3-1, 120 h, KB3.1 (ovary)): > 37 µg/mL
IC50 (µM) ([3]; KB3.1 (endocervical adenocarcinoma), listed as pretenellin C (1)): weak or no activity
concentration below which biofilm inhibitory activity is lost [11]: 31.3 µg/mL
inhibition at 31.25 µg/mL ([11]; Staphylococcus aureus, DSM1104, S. aureus (DSM 1104), 31.25 µg/ml, read-out: Biofilm inhibition (% ± SD)): 46 ± 9%
inhibition at 62.5 µg/mL ([11]; Staphylococcus aureus, DSM1104, S. aureus (DSM 1104), 62.5 µg/ml, read-out: Biofilm inhibition (% ± SD)): 63 ± 16%
inhibition at 125 µg/mL ([11]; Staphylococcus aureus, DSM1104, S. aureus (DSM 1104), 125 µg/ml, read-out: Biofilm inhibition (% ± SD)): 74 ± 5%

MIC ([12]; DSM30191, read-out: MIC): 1.7 µg/mL (≈ 3.56 µM)
MIC ([6]; DSM1116, read-out: MIC): 0.42 µg/mL (≈ 0.879 µM)
MIC ([9]; read-out: MIC): 0.21 µg/mL (≈ 0.44 µM)
MIC ([10]; DSM346, read-out: MIC): 0.21 µg/mL (≈ 0.44 µM)
SMILES: CNC(C)C1CCC(N)C(OC2C(N)CC(N)C(OC3OCC(C)(O)C(NC)C3O)C2O)O1 (stereo not drawn) [Gentamycin, reference compound]

MIC (µg/mL) ([8]; Mycobacterium smegmatis): 1.70 ^K µg/mL
SMILES: NC[C@H]1O[C@H](O[C@H]2[C@H](O)[C@@H](O[C@H]3O[C@H](CO)[C@@H](O)[C@H](N)[C@H]3O)[C@H](N)C[C@@H]2N)[C@H](O)[C@@H](O)[C@@H]1O [Kanymycin, reference compound]

MIC ([4]; DSM10, read-out: MIC): 16.6 µg/mL (≈ 36.1 µM)
SMILES: CN(C)[C@@H]1C(O)=C(C(N)=O)C(=O)[C@@]2(O)C(O)=C3C(=O)c4c(O)cccc4[C@@](C)(O)[C@H]3[C@H](O)[C@@H]12 [Oxytetracycline, reference compound]
